This is an account of results in the supplement of paper PMC10307832.

What all share (assay): relative viability (nuclei count vs DMSO), 5 days (fraction); higher = more cells survive
Compound in the assay “CUDC-101 + Luminespib”: C#Cc1cccc(Nc2ncnc3cc(OC)c(OCCCCCCC(=O)NO)cc23)c1 [CUDC-101] + CCNC(=O)c1noc(-c2cc(C(C)C)c(O)cc2O)c1-c1ccc(CN2CCOCC2)cc1 [Luminespib] (partner 0.01 µM)
The essentials:
(§1)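 Lung cancer cell lines were seeded in 1536-well plates and dosed by pin tool the next day, with either a single drug or a fixed anchor-drug dose combined with five library-drug doses (not always all listed) spaced in √10 steps. Five days later, one step fixed the cells and stained their nuclei (final 0.05% Triton X-100, 1% formaldehyde, 1 ug/ml Hoechst), and nuclei were counted on 4× images. Relative viability is the nuclei count in treated wells divided by the count in vehicle wells, and each value is the median of duplicate plates.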

Compound in the assay “NVP-TAE684 + Lapatinib”: COc1cc(N2CCC(N3CCN(C)CC3)CC2)ccc1Nc1ncc(Cl)c(Nc2ccccc2S(=O)(=O)C(C)C)n1 [NVP-TAE684] + CS(=O)(=O)CCNCc1ccc(-c2ccc3ncnc(Nc4ccc(OCc5cccc(F)c5)c(Cl)c4)c3c2)o1 [Lapatinib] (partner 2 µM)
The essentials:
as §1

Compound in the assay “NVP-TAE684 + Phenformin”: COc1cc(N2CCC(N3CCN(C)CC3)CC2)ccc1Nc1ncc(Cl)c(Nc2ccccc2S(=O)(=O)C(C)C)n1 [NVP-TAE684] + N=C(N)NC(=N)NCCc1ccccc1 [Phenformin] (partner 250 µM)
The essentials: as §1

Compound in the assay “Vandetanib + OSI-027”: COc1cc2/c(=N/c3ccc(Br)cc3F)nc[nH]c2cc1OCC1CCN(C)CC1 [Vandetanib] + COc1cccc2cc(-c3nc([C@H]4CC[C@H](C(=O)O)CC4)n4ncnc(N)c34)[nH]c12 [OSI-027] (partner 0.5 µM)
In outline: as §1

As for UMC-11, the relative viability with CUDC-101 + Luminespib (first compound 0.01 µM) came to 1.22; with CUDC-101 + Luminespib (first compound 0.03162 µM) it was 0.879; with CUDC-101 + Luminespib (first compound 0.1 µM), 1.03; with CUDC-101 + Luminespib (first compound 0.3162 µM) it was 0.43; with CUDC-101 + Luminespib (first compound 1 µM), 0.165; with NVP-TAE684 + Lapatinib (first compound 0.2 µM), 1.03. Besides, the relative viability was 0.778 in the assay with NVP-TAE684 + Lapatinib (first compound 0.6325 µM); 0.683 with NVP-TAE684 + Lapatinib (first compound 2 µM); 0.355 in the assay with NVP-TAE684 + Phenformin (first compound 0.2 µM); 0.32 with NVP-TAE684 + Phenformin (first compound 0.6325 µM); 0.268 in the assay with NVP-TAE684 + Phenformin (first compound 2 µM); 0.472 with Vandetanib + OSI-027 (first compound 0.02 µM). Besides, the relative viability in the assay with Vandetanib + OSI-027 (first compound 0.06325 µM) was found to be 0.416; in the assay with Vandetanib + OSI-027 (first compound 0.2 µM) it was 0.45; with Vandetanib + OSI-027 (first compound 0.6325 µM), 0.443; in the assay with Vandetanib + OSI-027 (first compound 2 µM), 0.467.
